In patent publication US20260027094A1, “USE OF PYRIDONE DERIVATIVE” (GUANGZHOU JOYO PHARMATECH CO., LTD, priority 2022, published 2026):

System: TNBS-induced SD rat models of chronic colitis with intestinal fibrosis
Assay: Pharmacodynamic experiment of TNBS-induced rat models of chronic colitis with intestinal fibrosis
Format: in vivo, SD rats
Conditions: for AUC(0-10 d) (D 0-D 10) of DAI scores: after first TNBS induction; for AUC(0-10 d) (D 0-D 10) of DAI scores / AUC(14-24 d) (D 14-D 24) of DAI scores: mean ± SD; for AUC(14-24 d) (D 14-D 24) of DAI scores: after second TNBS induction; for CVF (%) of colon middle segment: Masson staining, model control 6.39 ± 3.16, normal 0.74 ± 0.32; for Inflammatory response (points), histopathological score of colon tissue / Tissue ulcer (points), histopathological score of colon tissue: colon middle segment, model control 2.00 ± 0.00; for HYP (μg/g) of colon middle segment: model control 2109.99 ± 385.85, normal 1141.78 ± 106.42; for Change rate of AUC(0-10 d) (%) / Change rate of AUC(14-24 d) (%): relative to model control group
Text: • 1) Animals: SD rats, specific pathogen-free (SPF) grade, male, aged 7 to 8 weeks at the time of grouping, with 10 rats per group. The animals were supplied by Beijing HFK Bioscience Co., Ltd. • 2) Reagents, positive drugs, and test drugs • A. Reagents
• B. Positive Drugs: Sulfasalazine Colon-Soluble Capsules, Supplied by Guangdong Qiangji Pharmaceutical Co., Ltd. • C. Test Drug: Compound I, Supplied by Guangzhou JOYO Pharmatech Co., Ltd. • 3) Modeling method
TNBS two-enema method: After the adaptation period inspection and observation were qualified, experimental animals were screened by body weight and randomly divided into six experimental groups based on body weight. The groups included a normal control group, a model control group, a positive drug treatment group, a test compound low dose treatment group, a test compound medium dose treatment group, and a test compound high dose treatment group, with 10 rats in each group. On the day of grouping, animals in the normal control group were administered 50% ethanol solution via enema, while animals in the other groups were administered TNBS ethanol solution via enema. The dose of TNBS was 30 mg per animal, with the induction of the model performed twice at a frequency of once every two weeks. The experimental period lasted for 4 weeks, during which all animals were given normal access to water and food. • 4) Grouping and administration
The Disease Activity Index (DAI) scoring was performed on each group of experimental animals based on indicators such as animal body weight, stool morphology and characteristics, and occult blood or hematochezia. Scoring was performed after model induction, once a day for 10 consecutive days, for a total of 2 rounds.
Note: The DAI score was performed based on the percentage of body weight loss, stool morphology, and progression of blood in the stool. Statistical analysis was conducted comprehensively using these three scoring indicators. • 6) Endpoint sample collection, histopathological analysis, and hydroxyproline content analysis • A. After euthanizing the animals with pentobarbital sodium anesthesia, the colon, i.e., the segment from the end of cecum to the anus, was excised. The intestinal segment was flushed with normal saline, and the entire colon was evenly divided into upper, middle, and lower segments. The middle segment of the colon was further divided, with part of the tissue quickly frozen in liquid nitrogen and stored in a −80° C. refrigerator for measuring the total hydroxyproline levels in the middle segment samples of the colon of animals in each group. The remaining middle segment tissue was fixed in 10% formaldehyde, embedded in paraffin, and sectioned into 3 μm-thick slices. These slices were then deparaffinized in xylene, rehydrated through a graded ethanol series, subjected to H&E staining and Masson staining, dehydrated, cleared, sealed, and observed under a microscope to capture histopathological changes. Routine tissue freezing was performed. • B. Histopathological analysis
• a: Based on the Masson staining results, the area of collagen staining-positive regions and the total area of samples from the middle segment samples of the colon (submucosa and muscularis) of animals in each experimental group were statistically analyzed using Image J to calculate the collagen volume fraction (CVF %) of each sample. • C. Detection of hydroxyproline levels in the colon
The middle segment samples of the colon were processed according to the instructions, using the hydroxyproline detection kit. The total hydroxyproline levels in the middle segment samples of the colon of animals in each group were measured.

[1] = Compound I high dose 15 mg/kg oral gavage twice a day
[2] = Compound I high dose 15 mg/kg twice a day for 4 weeks
[3] = Compound I high dose 15 mg/kg twice a day
[4] = Compound I low dose 3 mg/kg oral gavage twice a day
[5] = Compound I low dose 3 mg/kg twice a day for 4 weeks
[6] = Compound I low dose 3 mg/kg twice a day
[7] = Compound I medium dose 6 mg/kg oral gavage twice a day
[8] = Compound I medium dose 6 mg/kg twice a day for 4 weeks
[9] = Compound I medium dose 6 mg/kg twice a day

SMILES: CC1(c2ccc(=O)n(-c3ccsc3)c2)COC1 [Compound I]
- Efficacy evaluation result (conclusion) (Compound I 3.0, 6.0 and 15.0 mg/kg twice a day, 4 weeks): significant therapeutic effect
- AUC(0-10 d) (D 0-D 10) of DAI scores [1]: 33.50 ± 3.97
- AUC(14-24 d) (D 14-D 24) of DAI scores [1]: 15.40 ± 3.50
- CVF (%) of colon middle segment [2]: 2.37 ± 1.33 %
- Inflammatory response (points), histopathological score of colon tissue [2]: 0.80 ± 0.79 points
- Tissue ulcer (points), histopathological score of colon tissue [2]: 0.70 ± 0.67 points
- HYP (μg/g) of colon middle segment [2]: 1270.56 ± 287.01 µg/g
- Change rate of AUC(0-10 d) (%) [3]: −26.78%
- Change rate of AUC(14-24 d) (%) [3]: −35.97%
- AUC(0-10 d) (D 0-D 10) of DAI scores [4]: 37.15 ± 4.93
- AUC(14-24 d) (D 14-D 24) of DAI scores [4]: 19.30 ± 2.79
- CVF (%) of colon middle segment [5]: 2.97 ± 1.78 %
- Inflammatory response (points), histopathological score of colon tissue [5]: 1.00 ± 0.67 points
- Tissue ulcer (points), histopathological score of colon tissue [5]: 0.80 ± 0.63 points
- HYP (μg/g) of colon middle segment [5]: 1333.43 ± 155.33 µg/g
- Change rate of AUC(0-10 d) (%) [6]: −18.80%
- Change rate of AUC(14-24 d) (%) [6]: −19.75%
- AUC(0-10 d) (D 0-D 10) of DAI scores [7]: 36.05 ± 4.87
- AUC(14-24 d) (D 14-D 24) of DAI scores [7]: 17.25 ± 3.16
- CVF (%) of colon middle segment [8]: 2.36 ± 1.47 %
- Inflammatory response (points), histopathological score of colon tissue [8]: 0.70 ± 0.67 points
- Tissue ulcer (points), histopathological score of colon tissue [8]: 0.70 ± 0.67 points
- HYP (μg/g) of colon middle segment [8]: 1228.40 ± 235.44^####+ μg/g
- Change rate of AUC(0-10 d) (%) [9]: −21.20%
- Change rate of AUC(14-24 d) (%) [9]: −28.27%
- Colon tissue healing and degree of fibrosis (histopathology) (all Compound I treatment groups (3, 6, 15 mg/kg twice a day)): tissue healing and a reduction in the degree of fibrosis were observed
- Effective dose (colon fibrosis, HYP level improvement) (oral gavage twice a day, certain dose-dependent relationship): 3.0 mg/kg
- Effective low dose (DAI AUC(0-10 d) improvement) (oral gavage twice a day, chronic colitis disease process): 3.0 mg/kg
